Assay results as given in PubChem BioAssay AID292 (DTP/NCI, 2004).
Values joined by “and” are separate entries in the source; they are usually repeats but may differ in a detail not shown here. Equal values may be shown once. Toxic doses and inconclusive results are not listed.

Tested on: B6C3F1 mice, ip Sarcoma M5076, median survival T/C
Assay: NCI In Vivo Anticancer Drug Screen. Data for tumor model Sarcoma M5076 (intraperitoneal) in B6C3F1 mice
Conditions: endpoint: median survival time, schedule: Q04DX004 (ip), higher = longer survival
Procedure, shortened: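 Survival measured in treated (T) and vehicle control (C) mice with transplantable tumour; result given as T divided by C.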

[1] = dose: 50.0 mg/kg/injection, vehicle: Klucel (hydroxypropylcellulose) (HPC)
[2] = dose: 25.0 mg/kg/injection, vehicle: saline with Tween-80
[3] = dose: 50.0 mg/kg/injection, vehicle: saline with Tween-80
[4] = dose: 100.0 mg/kg/injection, vehicle: saline with Tween-80
[5] = dose: 200.0 mg/kg/injection, vehicle: saline with Tween-80

COc1c2c(c(O)c3c4c(c(C)cc13)C1OC3(C(OC)OC5CC(C)(O)C(OC6CC(C)(O)C(O)C(C)O6)C(C)O5)OC1C(OC)(O4)C31CO1)C(=O)C(O)CC2OC1CC(C)(O)C(OC(C)=O)C(C)O1 (centres undefined)
T/C (dose: 0.03 mg/kg/injection, vehicle: saline): 120 % of control | T/C (dose: 15.0 micrograms/kg/injection, vehicle: saline): 105 % of control | T/C (dose: 30.0 micrograms/kg/injection, vehicle: saline): 115 % of control | T/C (dose: 60.0 micrograms/kg/injection, vehicle: saline): 111 % of control and 118 % of control | T/C (dose: 120.0 micrograms/kg/injection, vehicle: saline): 114 % of control | T/C (dose: 240.0 micrograms/kg/injection, vehicle: saline): 115 % of control

COc1ccc(OC)c(N2C(=O)C(=O)C(C(C)=O)C2=O)c1 (centres undefined)
T/C [1]: 104 % of control | T/C (dose: 100.0 mg/kg/injection, vehicle: Klucel (hydroxypropylcellulose) (HPC)): 100 % of control

NC(=O)c1ncn(C2CC3[O][Sn]([c]4ccccc4)([c]4ccccc4)[O]CC3O2)n1 (centres undefined)
T/C (dose: 31.13 mg/kg/injection, vehicle: distilled water + Tween-80): 95 % of control | T/C (dose: 62.5 mg/kg/injection, vehicle: distilled water + Tween-80): 104 % of control | T/C (dose: 125.0 mg/kg/injection, vehicle: distilled water + Tween-80): 114 % of control | T/C (dose: 250.0 mg/kg/injection, vehicle: distilled water + Tween-80): 114 % of control | T/C (dose: 500.0 mg/kg/injection, vehicle: distilled water + Tween-80): 122 % of control

COc1ccc(CCN2C(=O)C(=O)N(C)C2=O)cc1OC
T/C (dose: 25.0 mg/kg/injection, vehicle: Klucel (hydroxypropylcellulose) (HPC)): 89 % of control | T/C [1]: 99 % of control | T/C (dose: 400.0 mg/kg/injection, vehicle: Klucel (hydroxypropylcellulose) (HPC)): 92 % of control

COc1cc(NCc2ccc3nc(N)nc(N)c3c2C)cc(OC)c1OC
T/C (dose: 7.5 mg/kg/injection, vehicle: Klucel (hydroxypropylcellulose) (HPC)): 117 % of control and 122 % of control | T/C (dose: 30.0 mg/kg/injection, vehicle: Klucel (hydroxypropylcellulose) (HPC)): 152 % of control and 154 % of control | T/C (dose: 60.0 mg/kg/injection, vehicle: Klucel (hydroxypropylcellulose) (HPC)): 162 % of control and 172 % of control and 179 % of control | T/C (dose: 120.0 mg/kg/injection, vehicle: Klucel (hydroxypropylcellulose) (HPC)): 167 % of control

O=CC(CO)CC(C=O)n1cnc2c(=O)[nH]cnc21 (centres undefined)
T/C (dose: 37.0 mg/kg/injection, vehicle: saline): 104 % of control | T/C (dose: 75.0 mg/kg/injection, vehicle: saline): 105 % of control | T/C (dose: 300.0 mg/kg/injection, vehicle: saline): 124 % of control

CC(C)(O)/C=C/C(=O)[C@](C)(O)[C@H]1[C@H](O)C[C@@]2(C)[C@@H]3CC=C4[C@@H](C=C(O)C(=O)C4(C)C)[C@]3(C)C(=O)C[C@]12C
T/C (dose: 0.5 mg/kg/injection, vehicle: water): 111 % of control | T/C (dose: 1.0 mg/kg/injection, vehicle: water): 117 % of control | T/C (dose: 1.67 mg/kg/injection, vehicle: water): 113 % of control

OCCOCCN1CCN(CCCN2c3ccccc3Sc3ccc(C(F)(F)F)cc32)CC1
T/C (dose: 0.75 mg/kg/injection, vehicle: saline): 105 % of control | T/C (dose: 1.5 mg/kg/injection, vehicle: saline): 110 % of control | T/C (dose: 3.0 mg/kg/injection, vehicle: saline): 91 % of control | T/C (dose: 6.0 mg/kg/injection, vehicle: saline): 105 % of control | T/C (dose: 7.5 mg/kg/injection, vehicle: saline): 96 % of control and 100 % of control and 103 % of control | T/C (dose: 12.0 mg/kg/injection, vehicle: saline): 104 % of control | T/C (dose: 15.0 mg/kg/injection, vehicle: saline): 102 % of control and 107 % of control and 119 % of control | T/C (dose: 30.0 mg/kg/injection, vehicle: saline): 101 % of control and 107 % of control and 122 % of control | T/C (dose: 60.0 mg/kg/injection, vehicle: saline): 96 % of control (2×) and 101 % of control

O=C1c2ccccc2C(=O)c2c(NCCOCCO)ccc(NCCOCCO)c21
T/C [2]: 100 % of control | T/C [3]: 103 % of control | T/C [4]: 105 % of control | T/C [5]: 102 % of control | T/C (dose: 400.0 mg/kg/injection, vehicle: saline with Tween-80): 99 % of control

O=C(Oc1ccccc1)c1cc(O)c(O)c(O)c1
T/C [2]: 97 % of control | T/C [3]: 93 % of control | T/C [4]: 92 % of control | T/C [5]: 88 % of control
